Values belong to the substance of their own block, whether it stands above or below them.
Legend:
C2C12 cells = experiment: Fyn mutant assay: GFP-positive myoblasts to myotubes; assay type: cell-based, mouse; conditions: five days in differentiation medium
Text: This example describes the expression of wild type and mutant Fyn proteins to analyse the role of Fyn in Sca-1-mediated myogenesis. Briefly, a 1615 bp fragment of pCMV-FynDN (Ko et al., J. Biol Chem, 277:46085-46092, 2002), containing the full-length, dominant negative K299M mutant of mouse Fyn, was PCR-amplified using primers 5′-TTATGCGGCC GCATGGGCTGTG TGCAATGTAAGG-3′ (SEQ ID NO:7) and 5′-GCATGCATGC TACAGGTTT TCACCAGGTT GG-3′ (SEQ ID NO:8) and cloned into the NotI/SphI sites of pIRES-hrGFP-1a (Stratagene). The pCMV-FynDN plasmid was kindly provided by Marilyn Resh (Sloan-Kettering Cancer Center). Similarly, a 1.6 kb BamHI fragment of Fyn-Y531F (Maulon et al., Oncogene, 20:1964-1972, 2001), containing the full-length, constitutively active Y531F mutant of mouse Fyn, was cloned into the BamHI site of pIRES-hrGFP-1a (Stratagene). The Fyn-Y531F DNA was generously provided by Patrick Auberger (INSERM). […] Expression of mutants and GFP was determined by immunoblot of whole cell lysates from transfected C2C12 cells with anti-Fyn antibody (Santa Cruz Biotechnology), and immunofluorescence detection of GFP in live cells. […] Data was acquired with a Nikon Microphot-FX fluorescence microscope and Spot imaging software. […] The effect of Fyn mutants on cell fusion was measured as the ratio of GFP-positive mononuclear myoblasts to GFP-positive myotubes (cells with 2 or more nuclei).

Sca-1 = Sca-1 expression by immunoblot and immunostaining; assay type: cell-based, mouse; conditions: C2C12 cells
Procedure: Immunoblot analysis was performed using previously described methods (Hlaing et al., J Biol Chem, 277:23794-23799, 2002). Briefly, cells were lysed by sonication in lysis buffer (50 mM Tris-HCl, pH 7.5, 150 mM NaCl, 3 mM EDTA, 3 mM EGTA, 1% SDS, 10% glycerol), boiled for 5 min, and centrifuged at 16,000×g for 2 min. Protein concentrations of supernatants were measured by BCA assay (Pierce), and equal amounts of protein (100-200 μg) were separated by SDS-polyacrylamide gel electrophoresis. Immunoblots were analyzed with 5 μg/ml monoclonal antibody against Sca-1 (Pharmingen) or β-actin (Sigma), and 1 μg/ml HRP-conjugated goat-anti mouse IgG (Bio-Rad).
To detect Sca-1, Myf5, MyoD, and myogenin in situ, wild type and stably transfected C2C12 cells were plated on cover slips, grown as described for the indicated lengths of time, and stained with either 2.5 μg/ml monoclonal anti-Sca-1 antibody (clone E13-161.7; Pharmingen) and 4 μg/ml FITC-conjugated goat anti-rat IgG (Pharmingen), or 10 μg/ml rabbit polyclonal anti-Myf5, anti-MyoD, or anti-myogenin antibody (Santa Cruz Biotechnology) and 2 μg/ml FITC-conjugated goat anti-rabbit IgG (Molecular Probes), as previously described (Liu et al., Cell Biochem Biophys, 39:119-131, 2003).

L6 rat myoblasts [1] = experiment: Myoblast fusion assay in L6 cells; assay type: cell-based; conditions: L6, differentiation conditions, PIPLC 5 U/ml
Text: (§1) Actively growing C2C12, Sol8, and L6 skeletal myoblasts (ATCC) were maintained in DMEM with 10%, 20%, or 10% FBS, respectively. QM7 quail skeletal myoblasts (kindly provided by Charles Ordahl, UCSF) were maintained in M199 medium with 10% tryptose phosphate and 10% FBS. Myoblast differentiation was induced by culture of confluent monolayers in DMEM with 1% FBS for C2C12 and Sol8 cells, 2% horse serum for L6 cells, or M199 medium with 10% tryptase phosphate and 0.5% FBS for QM7 cells. For PIPLC treatment, 5 U/ml of PIPLC (Sigma) was added into the culture medium when cells reached confluence, and with daily media changes. […]
(§2) Cells were plated on cover slips, cultured under conditions described above in Example 1, and labeled with BrdU for 60 min using Labeling and Detection Kit I (Roche) according to the manufacturer's instructions. […] Immunofluorescence signals were acquired with a Nikon Microphot-FX fluorescence microscope and Spot imaging software. Nuclei from low-power (10×) images were analyzed to quantitate BrdU incorporation and myoblast fusion. Each culture stage was analyzed in triplicate, with data representing the mean of 10 high-power fields. Cell proliferation was calculated as percent BrdU-positive nuclei per field. Cell fusion was calculated as average number of DAPI staining nuclei per myotube.

C2C12 myoblasts [2] = experiment: Myoblast fusion assay in C2C12 cells; assay type: cell-based, mouse; conditions: C2C12, differentiation conditions, PIPLC 5 U/ml
Text: as §1, §2

C2C12 myoblasts [3] = experiment: BrdU incorporation (cell proliferation) in C2C12 cells; assay type: cell-based, mouse; conditions: C2C12, differentiation conditions, PIPLC 5 U/ml
Text: as §1, §2

QM7 avian myoblasts [4] = experiment: BrdU incorporation in QM7 cells; assay type: cell-based, quail; conditions: QM7, differentiation conditions, PIPLC 5 U/ml
Text: as §1, §2

Sol8 murine myoblasts [5] = experiment: BrdU incorporation in Sol8 cells; assay type: cell-based, mouse; conditions: Sol8, differentiation conditions, PIPLC 5 U/ml
Text: as §1, §2

Sol8 murine myoblasts [6] = experiment: Myoblast fusion assay in Sol8 cells; assay type: cell-based, mouse; conditions: Sol8, differentiation conditions, PIPLC 5 U/ml
Text: as §1, §2

QM7 avian myoblasts [7] = experiment: Myoblast fusion assay in QM7 cells; assay type: cell-based, quail; conditions: QM7, differentiation conditions, PIPLC 5 U/ml
Text: as §1, §2

L6 rat myoblasts [8] = experiment: BrdU incorporation in L6 cells; assay type: cell-based; conditions: L6, differentiation conditions, PIPLC 5 U/ml
Text: as §1, §2

[9] = target: murine Sca-1 (stem cell antigen-1) (murine) (UniProt P05533); experiment: cell-based or functional assay
Sequence of UniProt P05533 (P05533 27-112 limits assumed): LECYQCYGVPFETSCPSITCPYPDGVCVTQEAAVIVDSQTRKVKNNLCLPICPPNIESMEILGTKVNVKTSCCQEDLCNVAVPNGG

Substance: dominant-negative mutant of Fyn: Full-length dominant negative K299M mutant of mouse Fyn, co-expressed with GFP from pIRES-hrGFP-1a
ratio of transfected myoblasts to myotubes (C2C12 cells; Sca-1 antisense-expressing cells): 2.3+/−0.7

Substance: phosphatidylinositol-specific phospholipase-C [PIPLC]
removal of Sca-1 from cell surface (Sca-1): strips Sca-1 from the surface
myoblast fusion (L6 rat myoblasts [1]): 2±1 nuclei/myotube
myoblast fusion (C2C12 myoblasts [2]): 3±1 nuclei/myotube
BrdU incorporation (C2C12 myoblasts [3]): 37±2 % BrdU positive nuclei
BrdU incorporation (QM7 avian myoblasts [4]): 48±5 % BrdU positive nuclei
BrdU incorporation (Sol8 murine myoblasts [5]): 18±2 % BrdU positive nuclei
myoblast fusion (Sol8 murine myoblasts [6]): 5±1 nuclei/myotube
myoblast fusion (QM7 avian myoblasts [7]): 1±0.2 nuclei/myotube
BrdU incorporation (L6 rat myoblasts [8]): 20±2 % BrdU positive nuclei

Substance: constitutively active form of Fyn: Full-length constitutively active Y531F mutant of mouse Fyn, co-expressed with GFP from pIRES-hrGFP-1a
ratio of transfected myoblasts to myotubes (C2C12 cells; wild type C2C12 cells): 4.9+/−1.7

BrdU positive nuclei (proliferation), E13-161.7 and D7 in combination versus untreated (% BrdU positive nuclei) [9]: 11
nuclei per myotube (myoblast fusion), E13-161.7 and D7 in combination versus untreated (nuclei per myotube) [9]: 14
Substance: monoclonal rat anti-Sca-1 antibody, clone E13-161.7 (Pharmingen)

BrdU positive nuclei (proliferation), E13-161.7 and D7 in combination versus untreated (% BrdU positive nuclei) [9]: 11
nuclei per myotube (myoblast fusion), E13-161.7 and D7 in combination versus untreated (nuclei per myotube) [9]: 14
Substance: monoclonal anti-Sca-1 antibody, clone D7 (Pharmingen)

— patent US20050260202A1, “Methods for producing proliferating muscle cells” (The Regents of the University of California, priority 2004, published 2005)
